Test results published in patent US20260132115A1, “SUBSTITUTED 3-FLUOROBENZENEPROPANOATE COMPOUND AND PREPARATION METHOD THEREFOR, PHARMACEUTICAL COMPOSITION THEREOF, AND USE THEREOF” (TIANJIN GUDUI BIO-PHARM CO., LTD., priority 2022, published 2026).
Read-outs that look alike come from different tables or passages of the source.

Key:
[1] = test system: λ-Carrageenan-Induced Rat Toe Swelling; test: Anti-inflammatory effect on λ-carrageenan-induced rat toe swelling; type: in vivo, SD rats; conditions: Rattus norvegicus, ip, 10 mg/kg intraperitoneal, 1 h before 1% λ-carrageenan
Experimental: Experimental method: Male SD rats weighing 150-160 g were randomly grouped, with 10 rats in each group. The rats were intraperitoneally injected with saline, the compounds of the present disclosure, and the control drug flurbiprofen or flurbiprofen axetil respectively, all of which were administered at a dose of 10 mg/kg and a dosing volume of 10 μL/g. At 1 h after administration, 100 μL of 1% λ-carrageenan was injected into the right hind toe of each rat to induce inflammation. Afterwards, the paw volume was measured every 1 h using a paw volume meter to calculate the swelling inhibition rate.

[2] = test system: U251; test: Antitumor potency, MTT method, U251; type: cell-based; conditions: Homo sapiens, U-251, 72 h incubation
Experimental: (§1) Experimental method: The antitumor potency was tested by the MTT method. Tumor cells at the logarithmic phase were collected. The concentration of the cell suspension was adjusted. 100 μL of the cell suspension was added to each well. Cell plating was carried out and the cell density was adjusted to 1000 to 10000/well (the marginal wells were filled with sterile PBS). The cells were incubated at 5% CO2 and 37° C. until the cells adhered to the wall (96-well flat-bottomed plate). Drugs of different concentration gradients were added, 100 μL per well. Four replicates were set up. Under the conditions of 5% CO2 and 37° C., the cells were incubated for 72 h and observed under an inverted microscope. The prepared MTT solution (5 mg/mL) was added to the 96-well plate, 20 μL per well, mixed well, and incubated for 4 h under the conditions of 37° C. and 5% CO2. Afterwards, the liquid in the plate was discarded. 150 μL of DMSO was added to each well and oscillated for 3 min on a microplate reader. The OD value (optical density) was detected at 490 nm.
(§2) The inhibition rate of the drug against the tumor cell growth was calculated according to the following formula: […]

[3] = test system: H460; test: Antitumor potency, MTT method, H460; type: cell-based; conditions: Homo sapiens, NCI-H460, 72 h incubation
Experimental: as §1, §2

[4] = test system: Eca-109; test: Antitumor potency, MTT method, Eca-109; type: cell-based; conditions: Homo sapiens, 72 h incubation
Experimental: as §1, §2

[5] = In vivo pharmacokinetic assay in rats (gavage, plasma); conditions: female, Sprague Dawley, po, prototype drug in rat plasma, dose equimolar to 50 mg/kg flurbiprofen; for half-life: read-out: Prototype Drug t1/2 (converted)
Experimental: Experimental method: Adult female Sprague Dawley rats, aged 8-10 weeks and weighing 200±20 g, were randomly grouped, with 3 rats in each group. Rats in each of the groups were administered by gavage at a dose of 50 mg/kg of flurbiprofen and an equimolar dose of other example compounds to 50 mg/kg of flurbiprofen, respectively. After gavage administration, blood was collected at 0.0833 […], and 24 h into sodium heparin anticoagulant tubes, respectively. The blood was collected by the following method: 250 μL of blood were collected from the orbital venous plexuses of the rats. After blood collection, the blood samples were centrifuged at 12000 rpm in a centrifuge for 5 min. All plasma was aspirated into a 1.5-mL centrifuge tube, and the plasma was stored in a refrigerator at -80° C. The pharmacokinetic parameters were determined by the external standard curve method. Sample processing: after the cryopreserved samples were removed and restored to room temperature, the samples were vortexed evenly and then diluted two folds with methanol; the sample solution was diluted 5 folds by adding a mixed extractant of 0.5% formic acid-containing acetonitrile:methanol=7:3, and subjected to vortex oscillation for 1 min. Subsequently, the resultant was centrifuged at 4° C. and 12000 rpm for 10 min, and then 5 μL of the supernatant was measured for assay. The pharmacokinetic parameters in the Examples were calculated using the Winnonlin software.

[6] = test system: U87; test: Antitumor potency, MTT method, U87; type: cell-based; conditions: Homo sapiens, U-87 MG, 72 h incubation
Experimental: as §1, §2

[7] = test system: MM.1S; test: Antitumor potency, MTT method, MM.1S; type: cell-based; conditions: Homo sapiens, MM1.S, 72 h incubation
Experimental: as §1, §2

[8] = test system: NUGC-4; test: Antitumor potency, MTT method, NUGC-4; type: cell-based; conditions: Homo sapiens, 72 h incubation
Experimental: as §1, §2

[9] = test system: rats with CIA; test: Analgesic and anti-inflammatory effects on collagen-induced rheumatoid arthritis (CIA) in rats; type: in vivo, Lewis rats; conditions: for paw volume effect as compared to the flurbiprofen group: left hind limb, 14-day intervention, 10 mg/kg (FIG. 3); for MWT effect as compared to the flurbiprofen group: left lower limb, 13-day intervention, 10 mg/kg (FIG. 4)
Experimental: Experimental method: Female Lewis rats, aged 6-8 weeks, were randomly grouped, with 8 rats in each group. Under the ambient temperature of 20.5° C. to 24.5° C. and the humidity of 40% to 70%, the light period was 12-h bright and 12-h dark. Type II collagen was mixed with Freund's incomplete adjuvant (IFA) at a ratio of 1:1 and fully emulsified on ice before use. 100 μL of the mixed solution was injected intradermally at the part 2 to 3 cm from the base of the rat tail, and 50 μL of the mixed solution was injected into the bases of both hind limbs separately. The rats in the blank control group were injected with an equal volume of saline. IFA was used for re-immunization 7 days later. […] Rats with a total score of more than 2 on both hind limbs were selected and randomly divided into a model group, a flurbiprofen group, a compound 33 group, a compound 2 group, a compound 13 group, a compound 20 group, and a compound 35 group according to the body weight, score and paw volume, and furthermore a blank control group was set up, with 8 rats in each group. The dosing […] was […], and the dosing time was 14 days. A corresponding volume of solvent was administered in the model group and the blank control group.
Test indicators: body weight, arthritis score, hind limb paw volume, and mechanical foot threshold (MWT).
Standard for arthritis score: 0=normal; 1=erythema and slight swelling observed at the ankle joint; 2=erythema and slight swelling observed from the ankle joint to the metatarsal joint or the metacarpal joint; 3=erythema and moderate swelling observed from the ankle joint to the metatarsophalangeal joint or the metacarpal joint; 4=erythema and severe swelling observed from the ankle joint to the metatarsal joint; the total score of all (four) paws was calculated, and the sum of the arthritis indices was up to 16 per rat.

[10] = test system: Dry Yeast-Induced Rat Fever Models; test: Antipyretic effect on dry yeast-induced fever in rats; type: in vivo, SD rats; conditions: rectal temperature, 10 mg/kg intraperitoneal, 20 min before 20% dry yeast s.c.
Experimental: Experimental method: Male SD rats, aged 4 weeks, were randomly grouped, with 10 rats in each group. […] The rats were intraperitoneally injected with saline, the compounds of the present disclosure or the control drug flurbiprofen respectively, all of which were administered at a dose of 10 mg/kg and a dosing volume of 10 μL/g. At 20 min after administration, 20% active dry yeast suspension was injected subcutaneously. After modeling, the rectal temperatures were measured at 4 h and 8 h.

[11] = 6 h, read-out: Toe Swelling Inhibition Rate at 6 h
[12] = 24 h, read-out: Toe Swelling Inhibition Rate at 24 h

Compound | inhibition in vivo at 10 mg/kg [1, 11] [%] | inhibition in vivo at 10 mg/kg [1, 12] [%] | IC50 [2] [µM] | IC50 [3] [µM] | IC50 [4] [µM] | AUC [5] [ng·h/mL] | Cmax [5] [ng/mL] | half-life [5] [h] | IC50 [6] [µM] | IC50 [7] [µM] | IC50 [8] [µM] | paw volume effect as compared to the flurbiprofen group [9] | MWT effect as compared to the flurbiprofen group [9] | Temp. at 4 h After Dosing [10] [°C] | Temp. at 8 h After Dosing [10] [°C]
Cc1cc(CO)c(O)c(COC(=O)C(C)c2ccc(-c3ccccc3)c(F)c2)c1 (stereo not drawn) [Compound 33] | 55.5 | 35.8 | > 100 | > 100 | > 100 | 8.75 ± 1.53 | 1.56 ± 0.509 | 9.08 ± 1.44 | > 100 | > 100 | > 100 | better effects | slightly better or better effects | 37.18 ± 0.18 | 37.27 ± 0.28
CCCN(CCC)C(=O)OCOC(=O)C(C)c1ccc(-c2ccccc2)c(F)c1 (stereo not drawn) [Compound 13] | 46 | 37 | 73.9 | 47.9 | 30.7 | – | – | – | 80.5 | 5.39 | 40.1 | better effects | slightly better or better effects | 37.10 ± 0.172 | 37.32 ± 0.27
CC(C(=O)OCOC(=O)N1CCOCC1)c1ccc(-c2ccccc2)c(F)c1 (stereo not drawn) [Compound 2] | 42.9 | 34.1 | > 100 | 90 | 55.7 | 183 ± 85.9 | 27.1 ± 7.2 | 14 ± 9.88 | > 100 | 41.7 | 60 | better effects | slightly better or better effects | 37.10 ± 0.17 | 37.32 ± 0.27
